According to US20250011368A1, “DLL3 TARGETING PEPTIDES AND CONSTRUCTS THEREOF” (MARIANA ONCOLOGY INC., priority 2023, published 2025):
Numbered stars: 1 amine (or outer) side, 2 acyl side, 3 side chain; on linkers, the order of the positions; unused ones are H or OH. Bridge positions count the residues as written; N and C are the ends. Square brackets hold non-standard residues; d marks the D form. Side chains are listed from the residue outwards. Peptide text beside a SMILES is read from it. * marks the point of attachment. ξ: configuration not given here. X9 = O=C(O)CN1CCN(CC(=O)O)CCN(CC(=O)NCCCOCCOCCOCCCN*)CCN(CC(=O)O)CC1; DOTA = O=C(O)CN1CCN(CC(=O)O)CCN(CC(=O)*)CCN(CC(=O)O)CC1; X3 = CC[C@H](c1c[nH]c2ccccc12)[C@H](N[*:1])C(=O)[*:2]; Trp(7-Cl) = N[C@@H](Cc1c[nH]c2c(Cl)cccc12)C(=O)O; γGlu = O=C(O)[C@H](CCC(=O)[*:2])N[*:1]; 2Nal = N[C@@H](Cc1ccc2ccccc2c1)C(=O)O; Suc = O=C(CCC(=O)[*:2])[*:1]; NMeA = CN[C@@H](C)C(=O)O; Aze = O=C(O)[C@@H]1CCN1; Abu = CC[C@H](N)C(=O)O; ξD = NC(CC(=O)O)C(=O)O; Sar = CNCC(=O)O

These molecules were tested against T1, human DLL3 (Homo sapiens, UniProt Q9NYJ7) (assay: Affinity determination by Surface Plasmon Resonance (SPR)). Conditions: 25° C., biotinylated human DLL3 immobilized on streptavidin sensor chip, 1:1 binding model; read-out: SPR KD.
T1 sequence (Q9NYJ7 27-618): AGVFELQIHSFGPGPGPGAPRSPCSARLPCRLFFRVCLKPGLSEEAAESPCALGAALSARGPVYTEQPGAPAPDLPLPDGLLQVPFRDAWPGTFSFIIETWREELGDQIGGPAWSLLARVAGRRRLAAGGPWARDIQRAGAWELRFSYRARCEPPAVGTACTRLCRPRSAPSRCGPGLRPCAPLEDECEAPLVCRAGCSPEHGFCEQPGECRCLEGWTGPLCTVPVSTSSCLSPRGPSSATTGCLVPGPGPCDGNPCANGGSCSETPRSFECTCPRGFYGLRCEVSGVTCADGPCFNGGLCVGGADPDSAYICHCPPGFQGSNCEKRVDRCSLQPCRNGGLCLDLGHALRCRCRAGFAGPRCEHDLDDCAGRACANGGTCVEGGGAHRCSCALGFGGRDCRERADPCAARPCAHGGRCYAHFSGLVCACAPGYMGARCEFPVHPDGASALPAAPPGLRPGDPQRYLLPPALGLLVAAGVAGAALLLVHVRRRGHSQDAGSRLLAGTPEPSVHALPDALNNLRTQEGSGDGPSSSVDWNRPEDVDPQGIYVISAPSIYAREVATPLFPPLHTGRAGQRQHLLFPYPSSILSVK
Type: binding
Summary of the method: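 Biotinylated human DLL3 was captured on a streptavidin chip with a reference surface. Compounds at several concentrations were injected at 100 μL/minute in phosphate buffer (137 mM NaCl, 2.7 mM KCl, 0.05% P20, 2% DMSO). Affinity and kinetics came from 1:1 model fits of the sensorgrams.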

Row | SMILES | Kd
1 | CC[C@H](C)[C@H](NC(=O)[C@@H](NC(=O)[C@H](Cc1c[nH]c2c(Cl)cccc12)NC(C)=O)[C@@H](C)O)C(=O)N[C@H]1CSSC[C@@H](C(=O)N[C@@H](Cc2c[nH]c3ccccc23)C(=O)N2CCC[C@H]2C(=O)N[C@H](CCCCNC(=O)CN2CCN(CC(=O)O)CCN(CC(=O)O)CCN(CC(=O)O)CC2)C(N)=O)NC(=O)[C@H](CC(=O)O)NC(=O)[C@H](Cc2cnc[nH]2)NC(=O)[C@H](Cc2c[nH]c3ccccc23)NC(=O)[C@H](CC(N)=O)NC(=O)[C@H](CC(N)=O)NC1=O [compound 226, Ac-(7-CI-W)-T-I-C(3)-N-N-W-H-D-C(3)-W-P-[D-Lys(DOTA)]-NH2] (Ac-[Trp(7-Cl)]TICNNWHDCWP[dK](DOTA)-NH2; disulfide 4-10) | 1 to 10 nM
2 | CC[C@H](C)[C@H](NC(=O)[C@@H](NC(=O)[C@H](Cc1c[nH]c2ccccc12)NC(C)=O)[C@@H](C)O)C(=O)N[C@H]1CSSC[C@@H](C(=O)N[C@@H](Cc2c[nH]c3ccccc23)C(=O)N(C)CC(=O)N[C@H](CCCCNC(=O)CN2CCN(CC(=O)O)CCN(CC(=O)O)CCN(CC(=O)O)CC2)C(N)=O)NC(=O)[C@H](CC(=O)O)NC(=O)[C@H](Cc2cnc[nH]2)NC(=O)[C@H](Cc2c[nH]c3ccccc23)NC(=O)[C@H](CC(N)=O)NC(=O)[C@H](CC(N)=O)NC1=O [compound 227, Ac-W-T-I-C(3)-N-N-W-H-D-C(3)-W-Sar-[D-Lys(DOTA)]-NH2] (Ac-WTICNNWHDCW[Sar][dK](DOTA)-NH2; disulfide 4-10) | 1 to 10 nM
3 | CC[C@H](C)[C@H](NC(=O)[C@@H](NC(=O)[C@H](Cc1c[nH]c2ccccc12)NC(C)=O)[C@@H](C)O)C(=O)N[C@H]1CSSC[C@@H](C(=O)N[C@@H](Cc2c[nH]c3ccccc23)C(=O)N2CC[C@H]2C(=O)N[C@H](CCCCNC(=O)CN2CCN(CC(=O)O)CCN(CC(=O)O)CCN(CC(=O)O)CC2)C(N)=O)NC(=O)[C@H](CC(=O)O)NC(=O)[C@H](Cc2cnc[nH]2)NC(=O)[C@H](Cc2c[nH]c3ccccc23)NC(=O)[C@H](CC(N)=O)NC(=O)[C@H](CC(N)=O)NC1=O [compound 228, Ac-W-T-I-C(3)-N-N-W-H-D-C(3)-W-Aze-[D-Lys(DOTA)]-NH2] (Ac-WTICNNWHDCW[Aze][dK](DOTA)-NH2; disulfide 4-10) | 1 to 10 nM
4 | CC[C@H](C)[C@H](NC(=O)[C@@H](NC(=O)[C@H](Cc1c[nH]c2ccccc12)NC(C)=O)[C@@H](C)O)C(=O)N[C@H]1CSSC[C@@H](C(=O)N[C@@H](Cc2c[nH]c3ccccc23)C(=O)N(C)[C@@H](C)C(=O)N[C@@H](CCCCNC(=O)CN2CCN(CC(=O)O)CCN(CC(=O)O)CCN(CC(=O)O)CC2)C(N)=O)NC(=O)[C@H](CC(=O)O)NC(=O)[C@H](Cc2c[nH]cn2)NC(=O)[C@H](Cc2c[nH]c3ccccc23)NC(=O)[C@H](CC(N)=O)NC(=O)[C@H](CC(N)=O)NC1=O [compound 229, Ac-W-T-I-C(3)-N-N-W-H-D-C(3)-W-NmeA-[D-Lys(DOTA)]-NH2] (Ac-WTICNNWHDCW[NMeA]K(DOTA)-NH2; disulfide 4-10) | 10 to 100 nM

Continued, values first:

Row | Kd | SMILES
5 | < 1 nM | CC[C@H](C)[C@H](NC(=O)[C@@H](NC(=O)[C@H](Cc1c[nH]c2ccccc12)NC(C)=O)[C@@H](C)O)C(=O)N[C@H]1CSSC[C@@H](C(=O)N[C@@H](Cc2c[nH]c3ccccc23)C(=O)N2CCC[C@H]2C(=O)N[C@H](CCCCNC(=O)CNC(=O)CNC(=O)CCC(=O)NCCCOCCOCCOCCCNC(=O)CN2CCN(CC(=O)O)CCN(CC(=O)O)CCN(CC(=O)O)CC2)C(N)=O)NC(=O)[C@H](CC(=O)O)NC(=O)[C@H](Cc2cnc[nH]2)NC(=O)[C@H](Cc2ccc3ccccc3c2)NC(=O)[C@H](CC(N)=O)NC(=O)[C@H](CC(N)=O)NC1=O [compound 230, Ac-W-T-I-C(3)-N-N-(2Nal)-H-D-C(3)-W-P-[D-Lys(G-G-TTDS-DOTA)]-NH2] (Ac-WTICNN[2Nal]HDCWP[dK]([Gly-Gly-Suc-X9])-NH2; disulfide 4-10)
6 | < 1 nM | CC[C@H](C)[C@H](NC(=O)[C@@H](NC(=O)[C@H](Cc1c[nH]c2ccccc12)NC(C)=O)[C@@H](C)O)C(=O)N[C@H]1CSSC[C@@H](C(=O)N[C@@H](Cc2c[nH]c3ccccc23)C(=O)N2CCC[C@H]2C(=O)NCC(=O)NCC(=O)N[C@@H](CO)C(=O)NCC(=O)NCC(=O)N[C@@H](CO)C(=O)N[C@H](CCCCNC(=O)CN2CCN(CC(=O)O)CCN(CC(=O)O)CCN(CC(=O)O)CC2)C(N)=O)NC(=O)[C@H](CC(=O)O)NC(=O)[C@H](Cc2cnc[nH]2)NC(=O)[C@H](Cc2ccc3ccccc3c2)NC(=O)[C@H](CC(N)=O)NC(=O)[C@H](CC(N)=O)NC1=O [compound 231, Ac-W-T-I-C(3)-N-N-(2Nal)-H-D-C(3)-W-P-G-G-S-G-G-S-[D-Lys(DOTA)]-NH2] (Ac-WTICNN[2Nal]HDCWPGGSGGS[dK](DOTA)-NH2; disulfide 4-10)
7 | < 1 nM | CC[C@H](C)[C@H](NC(=O)[C@@H](NC(=O)[C@H](Cc1c[nH]c2ccccc12)NC(C)=O)[C@@H](C)O)C(=O)N[C@H]1CSSC[C@@H](C(=O)N[C@@H](Cc2c[nH]c3ccccc23)C(=O)N2CCC[C@H]2C(=O)NCC(=O)N[C@@H](CO)C(=O)NCC(=O)N[C@@H](CO)C(=O)NCC(=O)N[C@@H](CO)C(=O)N[C@H](CCCCNC(=O)CN2CCN(CC(=O)O)CCN(CC(=O)O)CCN(CC(=O)O)CC2)C(N)=O)NC(=O)C(CC(=O)O)NC(=O)[C@H](Cc2cnc[nH]2)NC(=O)[C@H](Cc2ccc3ccccc3c2)NC(=O)[C@H](CC(N)=O)NC(=O)[C@H](CC(N)=O)NC1=O (stereo partly drawn) [compound 232, Ac-W-T-I-C(3)-N-N-(2Nal)-H-D-C(3)-W-P-G-S-G-S-G-S-[D-Lys(DOTA)]-NH2] (Ac-WTICNN[2Nal]H[ξD]CWPGSGSGS[dK](DOTA)-NH2; disulfide 4-10)
8 | < 1 nM | CC[C@H](C)[C@H](NC(=O)[C@@H](NC(=O)[C@H](Cc1c[nH]c2ccccc12)NC(C)=O)[C@@H](C)O)C(=O)N[C@H]1CSSC[C@@H](C(=O)N[C@@H](Cc2c[nH]c3ccccc23)C(=O)N2CCC[C@H]2C(=O)N[C@@H](CCC(=O)N[C@H](CCCCNC(=O)CN2CCN(CC(=O)O)CCN(CC(=O)O)CCN(CC(=O)O)CC2)C(N)=O)C(=O)O)NC(=O)[C@H](CC(=O)O)NC(=O)[C@H](Cc2cnc[nH]2)NC(=O)[C@H](Cc2ccc3ccccc3c2)NC(=O)[C@H](CC(N)=O)NC(=O)[C@H](CC(N)=O)NC1=O [compound 233, Ac-W-T-I-C(3)-N-N-(2Nal)-H-D-C(3)-W-P-gE-[D-Lys(DOTA)]-NH2] (Ac-WTICNN[2Nal]HDCWP[γGlu][dK](DOTA)-NH2; disulfide 4-10)
9 | < 1 nM | CC[C@H](NC(C)=O)C(=O)N[C@H](C(=O)N[C@H](C(=O)N[C@H]1CSSC[C@@H](C(=O)N[C@@H](Cc2c[nH]c3ccccc23)C(=O)N2CCC[C@H]2C(=O)N[C@@H](CCC(=O)N[C@@H](CCC(=O)N[C@@H](CCC(=O)N[C@H](CCCCNC(=O)CN2CCN(CC(=O)O)CCN(CC(=O)O)CCN(CC(=O)O)CC2)C(N)=O)C(=O)O)C(=O)O)C(=O)O)NC(=O)[C@H](CC(=O)O)NC(=O)[C@H](Cc2cnc[nH]2)NC(=O)[C@H](Cc2ccc3ccccc3c2)NC(=O)[C@H](CC(N)=O)NC(=O)[C@H](CC(N)=O)NC1=O)[C@H](CC)c1c[nH]c2ccccc12)[C@@H](C)O [compound 234, Ac-W-T-I-C(3)-N-N-(2Nal)-H-D-C(3)-W-P-gE-gE-gE-[D-Lys(DOTA)]-NH2] (Ac-[Abu]T[X3]CNN[2Nal]HDCWP[γGlu][γGlu][γGlu][dK](DOTA)-NH2; disulfide 4-10)
